Measured values from patent US5047337A, “Ceramide-glycanase” (priority 1987, dated 1991).

Tests used:
[1] = test system: Annelid ceramide-glycanase; assay: Substrate specificity and pH optimum of annelid ceramide-glycanase from leeches and earthworms (general description); format: biochemical; conditions: enzyme obtained from leeches and earthworms
[2] = test system: earthworm ceramide-glycanase; assay: Hydrolysis of glycolipids with earthworm enzyme (TLC); format: biochemical, Lumbricus terrestris; conditions: 37° C.; for release of ceramides from the glycolipid by earthworm ceramide-glycanase: one unit enzyme, 17 h, TLC; for hydrolysis of the glycolipid by earthworm ceramide-glycanase: 20 nmol substrate, pH 4.5, sodium taurodeoxycholate 400 μg, 16 hours
Method: The assay for ceramide-glycanase was carried out essentially according to the method described above in Example 3. […] Glycolipid substrates included LacCer, GbOse3 Cer, GT1, […] and GlcCer. […] The mixture was vortexed and centrifuged to separate the organic phase (lower) from the aqueous phase (upper). […] For the detection of the released oligosaccharide, the aqueous phase was analyzed by TLC using n-butanol:acetic acid:H2 O (2:1:1) as the developing solvent. […] The chromatograms are seen in FIGS. 5 and 6.

leech ceramide-glycanase = assay: Hydrolysis of glycolipids with leech enzyme (TLC); format: biochemical, leech (Hirudo medicinalis, Macrobdella decora); conditions: 30 nmol substrate, pH 4.5, sodium taurodeoxycholate 200 μg, 37° C.
Method: Assays were performed in 10×75 mm glass tubes. […] Glycolipid substrates included LacCer, GbOse3 Cer, GbOse4 Cer, GbOse5 Cer, nLcOse4 Cer, GM3, GM2, GM1, GD1a and GT1. After the mixture was incubated at 37° C. for a preset time, the reaction was terminated by adding 5 volumes of chloroform:methanol (2:1). The mixture was vortexed and briefly centrifuged to separate the organic phase (lower) from the aqueous phase (upper). Under this condition the enzyme protein became insoluble and stayed at the interface. […] For detection of the released oligosaccharide, the aqueous phase was analyzed by thin-layer chromatography using n-butanol:acetic acid:H2 O (2:1:1) as the developing solvent. […] The chromatograms are seen in FIGS. 2 and 3.

Substance	hydrolysis of the glycosphingolipid by annelid ceramide-glycanase [1]	release of ceramides from the glycolipid by earthworm ceramide-glycanase [2]	release of intact oligosaccharide from the glycolipid by leech ceramide-glycanase (leech ceramide-glycanase)	hydrolysis of the glycolipid by earthworm ceramide-glycanase [2]
Galα1→4GalCer [DiGalCer]	–	–	–	not hydrolyzed
GD1a	hydrolyzes	able to release ceramides	liberated an intact sialic acid containing oligosaccharide	–
3-sulfo-lactosyl ceramide	hydrolyzes	–	–	–
globotriaosyl-ceramide [GbOse3 Cer]	hydrolyzes	able to release ceramides	able to liberate the intact oligosaccharide	–
galactosylceramide [GalCer]	will not generally hydrolyze	–	–	refractory

Continued, in another order:

hydrolysis of the glycosphingolipid by annelid ceramide-glycanase [1]	Substance	release of ceramides from the glycolipid by earthworm ceramide-glycanase [2]	release of intact oligosaccharide from the glycolipid by leech ceramide-glycanase (leech ceramide-glycanase)	hydrolysis of the glycolipid by earthworm ceramide-glycanase [2]
hydrolyzes	globopentaoyl-ceramicde [GbOse5 Cer]	able to release ceramides	able to liberate the intact oligosaccharide	–
hydrolyzes	globotetraosyl-ceramide [GbOse4 Cer]	able to release ceramides	able to liberate the intact oligosaccharide	–
hydrolyzes	lacto-N-neotetraoyl-ceramide [nLcOse4 Cer]	–	able to liberate the intact oligosaccharide	–
will not generally hydrolyze	glucosylceramide [GlcCer]	–	–	refractory
hydrolyzes	lactosyl-ceramide [LacCer]	able to release ceramides	able to liberate the intact oligosaccharide	hydrolyzed
